# From patent publication US8871789B2, “Method of preventing or treating viral infection” (The United States of America, as represented by the …, priority 2010, dated 2014)
# What was measured:
# [1] = test system: HSV-1; assay type: cell-based, Balb/c mice; set-up: reduction of viral reactivation (viral yield): unit of the concentration uncertain
# Method: FIG. 18 is a dot plot showing latently infected ganglia that were explanted in the presence of DMSO, ACV (100 mM), or ML324 (50 mM) for 48 hrs. Viral yields were determined from one half of each ganglia at 48 hrs (DMSO, ACV, ML324) and from the other half of each ganglia after drug reversal for an additional 72 hrs (ACV-R, ML324-R) [Wilcoxon matched pairs signed rank test, ACV vs ACV-R n=8, ML324 vs ML324-R n=10]. Data are means±SEM.
# FIG. 19 is a dot plot showing viral yields from HSV-1 latently infected trigeminal ganglia that were explanted in the presence of DMSO, or 2 mM DMOG or 50 mM ML324 for 48 hours (DMSO versus DMOG: P=0.0015, Wilcoxon matched-pairs signed rank test; n=12; DMSO versus ML324: P<0.0001; n=20). Data are means±SEM.
# Viral yields decrease from HSV-1 latently infected ganglia explanted in the presence of LSD1 or JMJD2 inhibitors (FIG. 11). Balb/c mice were infected with 5×10^6 PFU HSV-1 (strain F) per eye after corneal scarification. Latently infected mice were sacrificed 45 days post clearance of the primary infection and trigeminal ganglia were rapidly explanted into culture in the presence of 2 mM DMOG, 2 mM TCP, or control (DMSO or ACV, acyclovir) for 48 hours. Post explant incubation, the ganglia were homogenized and briefly sonicated. The reactivated viral yield of each ganglia was determined by titering the clarified supernatant on Vero cells. Statistical comparisons were made using Wilcoxon signed rank test (paired ganglia) with a statistical significance of <0.05. Each data point was the result of a single ganglia divided and treated in the presence and absence of DMSO and DMOG or DMSO and TCP. Therefore, a Wilcoxon signed rank test was used to assess differences between each treated and untreated sample. The significant difference between DMSO control and DMOG was p=0.0018. This test used an exact p-value for small sample sizes with an a level of 0.05. n=20. Analyses were made using Prism (V5.0a) and are expressed as the mean+/−s.e.m.
# [2] = biological target: T1, JMJD2E (Homo sapiens, UniProt B2RXH2); assay: AlphaLISA assay, JMJD2E histone demethylase inhibition; assay type: biochemical; settings: Table 2; JMJD2E; AlphaLISA, in triplicate; read-out: IC50
# T1 sequence (B2RXH2 1-506): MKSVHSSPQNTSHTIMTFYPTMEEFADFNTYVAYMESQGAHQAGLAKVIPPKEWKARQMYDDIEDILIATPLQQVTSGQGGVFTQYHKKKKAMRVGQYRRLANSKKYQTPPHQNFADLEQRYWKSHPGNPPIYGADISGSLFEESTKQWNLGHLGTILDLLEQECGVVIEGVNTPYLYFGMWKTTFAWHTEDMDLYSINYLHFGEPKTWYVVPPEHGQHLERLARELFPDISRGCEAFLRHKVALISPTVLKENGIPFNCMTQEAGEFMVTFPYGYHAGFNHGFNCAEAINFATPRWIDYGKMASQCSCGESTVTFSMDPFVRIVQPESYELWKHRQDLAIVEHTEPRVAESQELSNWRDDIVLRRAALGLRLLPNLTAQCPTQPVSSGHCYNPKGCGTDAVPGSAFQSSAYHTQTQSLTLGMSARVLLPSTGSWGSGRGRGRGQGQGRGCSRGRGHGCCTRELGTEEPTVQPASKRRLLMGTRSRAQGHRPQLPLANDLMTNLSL
# [3] = test system: HSV-1; assay: MRC-5 cells, ML324 added at times relative to HSV-1 infection; assay type: cell-based; settings: added at 2 hours after infection; HSV-1 1.0 MOI; FIG. 17
# Method: FIG. 17 is a line graph showing MRC-5 cells that were treated with DMSO or ML324 at the indicated time relative to infection with HSV-1 (1.0 MOI). Viral and cellular mRNA levels were determined at 4 hours after infection. Data are means±SEM.
compound,measurement,setting,value
"CN(C)CCCNC(=O)c1ccc(-c2cc(O)c3ncccc3c2)cc1 [Compound 4, N-(3-(dimethylamino)propyl)-4-(8-hydroxyquinolin-6-yl)benzamide]",reduction of viral reactivation (viral yield),"[1]; 50 (unit uncertain), 48 hours explant, FIG. 19",4.5 log
same,viral replication in ganglia after drug withdrawal,"[1]; after ML324 withdrawal, additional 72 hrs, FIG. 18",robust viral replication
same,IC50,[2],0.92 µM
same,reduction of IE gene transcription when added after infection,[3],> 50%
